Data published in ChEMBL document CHEMBL1201862, “PubChem BioAssay data set” (2004).
Calls of active or inactive are those of the source. Cut-off read from the data, not from the text of the source: actives have a measured IC50 and inactives only a lower limit.

Assays:
Type in all cases: functional
[1] = target: T1, Apoptotic protease-activating factor 1 (Homo sapiens, UniProt O14727)
T1 sequence (O14727 whole entry): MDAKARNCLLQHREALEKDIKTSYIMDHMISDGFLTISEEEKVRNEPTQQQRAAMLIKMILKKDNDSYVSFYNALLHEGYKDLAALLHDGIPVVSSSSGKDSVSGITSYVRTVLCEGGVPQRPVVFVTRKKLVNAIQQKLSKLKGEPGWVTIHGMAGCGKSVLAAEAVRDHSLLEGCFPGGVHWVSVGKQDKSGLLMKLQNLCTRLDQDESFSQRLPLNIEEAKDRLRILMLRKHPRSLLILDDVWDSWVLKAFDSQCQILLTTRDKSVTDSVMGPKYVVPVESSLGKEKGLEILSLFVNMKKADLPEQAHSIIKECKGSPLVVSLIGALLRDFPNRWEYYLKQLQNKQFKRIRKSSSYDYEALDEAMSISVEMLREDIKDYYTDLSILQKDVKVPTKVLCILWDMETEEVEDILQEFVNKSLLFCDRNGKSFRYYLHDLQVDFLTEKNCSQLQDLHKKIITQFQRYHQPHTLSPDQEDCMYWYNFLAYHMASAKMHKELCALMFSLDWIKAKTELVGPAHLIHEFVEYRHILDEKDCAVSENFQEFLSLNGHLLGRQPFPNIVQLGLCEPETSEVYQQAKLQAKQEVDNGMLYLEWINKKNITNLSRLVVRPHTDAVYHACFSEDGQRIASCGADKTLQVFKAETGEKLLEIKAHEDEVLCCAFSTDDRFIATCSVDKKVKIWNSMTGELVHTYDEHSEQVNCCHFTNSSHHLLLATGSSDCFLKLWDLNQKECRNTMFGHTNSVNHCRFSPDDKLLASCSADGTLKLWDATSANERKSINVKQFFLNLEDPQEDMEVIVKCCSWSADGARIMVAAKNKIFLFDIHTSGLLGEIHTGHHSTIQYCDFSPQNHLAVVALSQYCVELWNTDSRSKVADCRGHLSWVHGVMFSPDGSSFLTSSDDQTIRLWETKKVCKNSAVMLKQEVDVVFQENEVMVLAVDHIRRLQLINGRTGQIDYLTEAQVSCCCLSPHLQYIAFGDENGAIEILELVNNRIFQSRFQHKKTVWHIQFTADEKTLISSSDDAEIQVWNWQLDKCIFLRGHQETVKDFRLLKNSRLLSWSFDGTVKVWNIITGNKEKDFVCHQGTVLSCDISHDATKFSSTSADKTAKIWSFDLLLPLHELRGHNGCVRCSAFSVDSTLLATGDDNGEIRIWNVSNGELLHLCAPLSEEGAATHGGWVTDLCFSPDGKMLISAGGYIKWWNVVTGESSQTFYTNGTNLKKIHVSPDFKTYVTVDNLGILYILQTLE

[2] = target: T2, Sentrin-specific protease 8 (Homo sapiens, UniProt Q96LD8);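 note: luminescence read-out of SENP8 inhibition, dose-response confirmation following an ultra-high-throughput screen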
T2 sequence (Q96LD8 whole entry): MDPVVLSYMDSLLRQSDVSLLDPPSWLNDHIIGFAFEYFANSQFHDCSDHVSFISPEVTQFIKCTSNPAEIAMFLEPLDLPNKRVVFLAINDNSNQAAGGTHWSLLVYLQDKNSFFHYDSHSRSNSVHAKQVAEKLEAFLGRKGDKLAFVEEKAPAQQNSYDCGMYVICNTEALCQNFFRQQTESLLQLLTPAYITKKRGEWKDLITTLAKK

[3] = target: T3, Sentrin-specific protease 7 (Homo sapiens, UniProt Q9BQF6);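 note: Luminescence-based dose-response confirmation of ultra-high-throughput screening hits, measuring inhibition of SENP7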
T3 sequence (Q9BQF6 whole entry): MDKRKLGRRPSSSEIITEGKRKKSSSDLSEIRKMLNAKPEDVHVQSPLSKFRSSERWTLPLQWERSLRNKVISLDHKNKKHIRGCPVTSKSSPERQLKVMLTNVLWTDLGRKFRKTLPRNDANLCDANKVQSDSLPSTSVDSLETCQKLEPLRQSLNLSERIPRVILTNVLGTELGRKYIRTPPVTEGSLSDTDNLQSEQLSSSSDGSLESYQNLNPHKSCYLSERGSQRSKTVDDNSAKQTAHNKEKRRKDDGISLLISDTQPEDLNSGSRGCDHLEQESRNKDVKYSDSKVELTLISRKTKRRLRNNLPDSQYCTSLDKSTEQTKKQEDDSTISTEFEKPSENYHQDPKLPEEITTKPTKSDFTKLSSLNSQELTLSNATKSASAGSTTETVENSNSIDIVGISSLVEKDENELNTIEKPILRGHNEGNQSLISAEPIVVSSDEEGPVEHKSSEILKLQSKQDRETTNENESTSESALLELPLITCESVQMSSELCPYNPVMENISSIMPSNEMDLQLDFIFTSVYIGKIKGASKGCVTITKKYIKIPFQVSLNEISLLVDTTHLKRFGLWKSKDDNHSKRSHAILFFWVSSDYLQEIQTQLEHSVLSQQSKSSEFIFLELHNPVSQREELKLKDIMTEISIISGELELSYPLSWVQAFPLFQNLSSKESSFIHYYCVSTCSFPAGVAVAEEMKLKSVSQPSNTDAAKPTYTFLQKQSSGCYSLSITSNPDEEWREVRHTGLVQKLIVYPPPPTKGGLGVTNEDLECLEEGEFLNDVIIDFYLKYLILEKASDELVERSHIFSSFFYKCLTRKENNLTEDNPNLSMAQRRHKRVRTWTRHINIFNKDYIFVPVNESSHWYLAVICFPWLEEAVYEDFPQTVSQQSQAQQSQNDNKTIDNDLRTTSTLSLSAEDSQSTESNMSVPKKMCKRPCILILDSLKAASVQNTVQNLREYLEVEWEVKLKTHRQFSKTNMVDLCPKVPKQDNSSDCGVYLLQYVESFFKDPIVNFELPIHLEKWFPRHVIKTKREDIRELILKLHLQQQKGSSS

Cc1ccc(C(=O)NNc2cc(N3CCCC3)nc(N3CCCC3)n2)cc1
IC50 [1]: 5.08 µM (active) | IC50 [2]: 4.6 µM (active) | IC50 [3]: 1.74 µM (active)

O=C1/C(=N\c2cccc(O)c2)C(N2CCCCC2)=C(O)c2ccccc21
IC50 [1]: 4.03 µM (active)

Cc1cc(/C=C2\SC(=S)N(C)C2=O)c(C)n1-c1ccc(O)cc1
IC50 [2]: 8.79 µM (active) | IC50 [3]: 5.42 µM (active)
